From patent US5795907A, “Gastin and CCK receptor ligands” (James Black Foundation Limited, priority 1994, dated 1998) come the findings set out here.

The target in one assay is T1, CCKB receptor (Mus musculus, UniProt P56481).
T1 construct: The cortex was dissected, weighed and homogenised in 40ml ice-cold buffer; tissue Charles River (supplier of the CD1 mice); host or cells: cerebral cortex membranes of male CD1 mice
T1 sequence (P56481 1-453): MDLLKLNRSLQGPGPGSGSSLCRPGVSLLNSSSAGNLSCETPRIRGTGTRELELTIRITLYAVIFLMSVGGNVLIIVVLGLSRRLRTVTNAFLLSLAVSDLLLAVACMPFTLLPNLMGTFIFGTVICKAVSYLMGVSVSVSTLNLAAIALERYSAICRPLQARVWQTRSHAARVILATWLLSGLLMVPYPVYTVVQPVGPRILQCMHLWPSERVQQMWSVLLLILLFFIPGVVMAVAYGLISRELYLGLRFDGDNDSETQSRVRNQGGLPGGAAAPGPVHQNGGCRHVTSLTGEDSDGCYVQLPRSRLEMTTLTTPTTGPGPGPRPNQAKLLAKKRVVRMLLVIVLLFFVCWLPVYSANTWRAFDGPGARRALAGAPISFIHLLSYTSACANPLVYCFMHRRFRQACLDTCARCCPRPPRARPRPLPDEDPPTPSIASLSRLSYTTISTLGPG
The experiment in a line: CCKB receptor radioligand binding assay in mouse cortical membranes ([125I]-CCK8S). The following applies: [125I]-CCK8S 200 pM, 150 min at 21±3°; for Ki: read-out: CCKB pKi (converted). Summed up:
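This was competition binding with tracer [125I]-CCK8S (200 pM solution added), run for 150 min at 21±3° on male CD1 mouse cortex membranes in pH 7.2 HEPES buffer with bacitracin. Filtration then gamma counting gave bound radioactivity. L-365,260 set the non-specific level.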

In a further assay the target is T2, CCKA (Cavia porcellus, UniProt Q63931).
T2 construct: The pancreatata were homogenised in 40 ml ice-cold HEPES buffer using a polytron; from tissue; host or cells: pancreas membranes of male Dunkin Hartley guinea-pigs
T2 sequence (Q63931 1-430): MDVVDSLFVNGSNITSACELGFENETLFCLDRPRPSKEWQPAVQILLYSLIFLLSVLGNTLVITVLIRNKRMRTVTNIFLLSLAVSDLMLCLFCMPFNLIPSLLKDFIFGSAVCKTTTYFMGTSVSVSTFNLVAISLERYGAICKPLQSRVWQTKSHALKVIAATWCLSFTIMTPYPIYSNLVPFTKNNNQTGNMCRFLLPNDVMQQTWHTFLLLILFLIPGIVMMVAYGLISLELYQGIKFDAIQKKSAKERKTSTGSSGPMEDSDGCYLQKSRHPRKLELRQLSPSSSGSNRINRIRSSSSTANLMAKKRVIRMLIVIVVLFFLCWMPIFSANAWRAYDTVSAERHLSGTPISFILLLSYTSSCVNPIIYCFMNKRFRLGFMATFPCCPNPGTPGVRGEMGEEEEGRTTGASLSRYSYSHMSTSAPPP
The experiment in a line: CCKA radioligand binding assay in guinea-pig pancreas membranes ([125I]-CCK8(S)). The following applies: PD134,308 present, 150 minutes at 21±3°; for Ki: read-out: CCKA pKi (converted). Summed up:
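Competition for [125I]-CCK8(S) (added as […] solution) ran for 150 min at 21±3° in HEPES pH 7.2. Membranes came from male guinea-pig pancreas at 1 mg/ml original wet weight, with 0.375 μM PD134,308 in the suspension. Filter-bound counts were gamma-counted; 100 nM L-364,718 (added solution) defined non-specific binding.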

The next assay concerns the target T3, gastrin (Rattus norvegicus, UniProt P30553).
T3 construct: The stomach was lowered into a jacketed organ bath containing 40 ml of buffered solution; from tissue; host or cells: isolated perfused whole stomach of immature rats (ca. 21 days old)
T3 sequence (P30553 1-452): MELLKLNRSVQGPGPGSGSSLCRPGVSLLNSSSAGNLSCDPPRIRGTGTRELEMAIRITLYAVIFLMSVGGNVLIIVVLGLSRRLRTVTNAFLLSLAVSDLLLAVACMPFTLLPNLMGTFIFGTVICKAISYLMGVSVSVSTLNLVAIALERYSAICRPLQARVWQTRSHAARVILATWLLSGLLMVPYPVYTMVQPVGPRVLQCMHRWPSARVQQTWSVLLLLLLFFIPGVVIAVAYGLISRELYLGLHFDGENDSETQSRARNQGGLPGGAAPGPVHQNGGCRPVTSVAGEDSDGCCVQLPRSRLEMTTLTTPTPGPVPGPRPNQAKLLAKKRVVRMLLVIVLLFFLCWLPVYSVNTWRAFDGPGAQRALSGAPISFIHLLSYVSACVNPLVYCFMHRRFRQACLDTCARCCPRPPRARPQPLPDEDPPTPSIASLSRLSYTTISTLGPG
The experiment in a line: gastrin antagonist activity in an immature rat stomach assay (pentagastrin-stimulated acid secretion). The following applies: cumulative pentagastrin dose-response curves after 60 min with drug; for Kb: read-out: Gastrin pKB (converted). Summed up:
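Isolated lumen-perfused immature rat stomach (33-50 g, ca. 21 days) in 37° organ bath with 3×10^-8 M 5-methylfurmethide; acid secretion read by pH electrode in perfusate. Compound added to serosal bath after 120 min stabilisation; cumulative pentagastrin dose-response curves begun 60 min later and analysed by the Black et al. method.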

Regarding `O=C(O)c1cc(NC(=O)C(Cc2c(F)c(F)c(F)c(F)c2F)NC(=O)c2cc3[nH]cnc3cc2C(=O)NCC23CC4CC(CC(C4)C2)C3)cc(C(=O)O)c1` (racemic) [Example 136, (±)-5-(1-(3,5-dicarboxyphenylaminocarbonyl)-2-pentafluorophenylethylaminocarbonyl)-6-(1-adamantanemethylaminocarbonyl)-benzimidazole], the results for the Ki at CCKB receptor and at CCKA were 0.00126 µM and greater than 10 µM, respectively. Further, the Kb at gastrin is 0.000316 µM.

Turning to `O=C(O)c1cc(NC(=O)[C@H](Cc2ccccc2)NC(=O)c2cc3cc[nH]c3cc2C(=O)NCC2CCC(O)CC2)cc(C(=O)O)c1` (single isomer, unassigned) [Example 109, 5-(1S-(3,5-dicarboxyphenylaminocarbonyl)-2-phenylethylaminocarbonyl)-6-(4-hydroxycyclohexanemethylaminocarbonyl)-indole], the Ki on CCKB receptor was 0.2 µM; at CCKA it was greater than 10 µM. The Kb at gastrin is 0.126 µM.

Turning to `O=C(O)c1cc2ccccc2cc1C(=O)NCC12CC3CC(CC(C3)C1)C2` [Example 1, 3-(1-adamantanemethylaminocarbonyl)-2-naphthoic acid], the Ki on CCKB receptor was 3.16 µM; at CCKA it was 7.94 µM. Also, the Kb on gastrin was 1.58 µM.

For the compound `COC(=O)[C@H](C)NC(=O)c1cc2ccccc2cc1C(=O)NCC12CC3CC(CC(C3)C1)C2` [Example 2, 2-(1S-methoxycarbonyl-ethylaminocarbonyl)-3-(1-adamantanemethylaminocarbonyl)-naphthalene], the values for the Ki at CCKB receptor and at CCKA were 3.16 µM and 12.6 µM, respectively. For the same compound, the Kb at gastrin is 1 µM.

Regarding `O=C(NCC12CC3CC(CC(C3)C1)C2)c1cc2ccccc2cc1C(=O)N1CCC[C@@H]1C(=O)O` [Example 3, 3-(2R-carboxypyrrolidino-carbonyl)-2-(1-adamantanemethylaminocarbonyl)-naphthalene], the Ki is 0.398 µM at CCKB receptor and 3.16 µM at CCKA. At gastrin, the Kb was 0.2 µM.

For `O=C(NCC12CC3CC(CC(C3)C1)C2)c1cc2ccccc2cc1C(=O)N1CCC[C@H]1C(=O)O` [Example 4, 2-(2S-carboxypyrrolidino-carbonyl)-3-(1-adamantanemethylaminocarbonyl)-naphthalene], the figures for the Ki at CCKB receptor and at CCKA were 3.16 µM and 3.98 µM, respectively. Also, the Kb at gastrin was 0.501 µM.

Take `C[C@@H](NC(=O)c1cc2ccccc2cc1C(=O)NCC12CC3CC(CC(C3)C1)C2)C(=O)O` [Example 5, 2-(1R-carboxyethylamino-carbonyl)-3-(1-adamantanemethylaminocarbonyl)-naphthalene]: the Ki at CCKB receptor is 1 µM; on CCKA, 6.31 µM. Besides, at gastrin, the Kb was 0.158 µM.

As to `COC(=O)[C@H]1CCCN1C(=O)c1cc2ccccc2cc1C(=O)NCC12CC3CC(CC(C3)C1)C2` [Example 7, 2-(2R-methoxycarbonylpyrrolidino-carbonyl)-3-(1-adamantanemethylaminocarbonyl)-naphthalene], the Ki on CCKB receptor and at CCKA was 1.58 µM each time. The Kb at gastrin is 0.398 µM.

Turning to `COC(=O)[C@@H](C)NC(=O)c1cc2ccccc2cc1C(=O)NCC12CC3CC(CC(C3)C1)C2` [Example 8, 2-(1R-methoxycarbonylethylamino-carbonyl)-3-(1-adamantanemethylaminocarbonyl)-naphthalene], the Ki at CCKB receptor was 5.01 µM; at CCKA, 1 µM. At gastrin, the Kb was 1.26 µM.

For `O=C(O)c1cc(NC(=O)[C@H](Cc2ccccc2)NC(=O)c2cc3ccccc3cc2C(=O)NCC23CC4CC(CC(C4)C2)C3)cc(C(=O)O)c1` [Example 15, 2-(1S-(3,5-dicarboxyphenylaminocarbonyl)-2-phenylethylaminocarbonyl)-3-(1-adamantanemethylaminocarbonyl)-naphthalene], the “CCKB pKi” value at CCKB receptor amounted to 7.9. Moreover, the “CCKA pKi” value at CCKA was determined as 6.1. Also, the “Gastrin pKB” value on gastrin is listed as 8.2.

Consider `C[C@@H](NC(=O)C[C@@H]1CCCN1C(=O)c1cc2ccccc2cc1C(=O)NCC12CC3CC(CC(C3)C1)C2)C(=O)O` [Example 16, 2-(2S-(1R-carboxyethylaminocarbonylmethyl)-pyrrolidinocarbonyl)-3-(1-adamantanemethylaminocarbonyl)-naphthalene], for which, on CCKB receptor, the “CCKB pKi” value was determined as 5.6. Also, the “CCKA pKi” value on CCKA amounted to 5.5. Also, on gastrin, the “Gastrin pKB” value is 6.2.

Regarding `O=C(O)c1cc(NC(=O)[C@H](Cc2ccccc2)NC(=O)c2cc3cc[nH]c3cc2C(=O)NCC23CC4CC(CC(C4)C2)C3)cc(C(=O)O)c1` [Example 24, 5-(1S-(3,5-dicarboxyphenylaminocarbonyl)-2-phenylethylaminocarbonyl)-6-(1-adamantanemethylaminocarbonyl)-indole], the values for the Ki at CCKB receptor and at CCKA were 0.00126 µM and 2 µM, respectively. On gastrin, the Kb is 0.000316 µM.

Consider `O=C(O)c1cc(NC(=O)[C@H](Cc2ccccc2)NC(=O)c2cc3[nH]ccc3cc2C(=O)NCC23CC4CC(CC(C4)C2)C3)cc(C(=O)O)c1` [Example 26, 6-(1S-(3,5-dicarboxyphenylaminocarbonyl)-2-phenylethylaminocarbonyl)-5-(1-adamantanemethylaminocarbonyl)-indole], for which the Ki at CCKB receptor is 0.0126 µM; at CCKA it was 3.16 µM. Moreover, the Kb at gastrin was 0.000501 µM.

Consider `CC(C)(C)C(=O)OCOC(=O)c1cc(NC(=O)[C@H](Cc2ccccc2)NC(=O)c2cc3cc[nH]c3cc2C(=O)NCC23CC4CC(CC(C4)C2)C3)cc(C(=O)OCOC(=O)C(C)(C)C)c1` [Example 33, 5-(1S-(3,5-dipivaloyloxymethyloxycarbonylphenylaminocarbonyl)-2-phenylethylaminocarbonyl)-6-(1-adamantanemethylaminocarbonyl)-indole], for which the Ki is 2.51 µM on CCKB receptor and 6.31 µM at CCKA. Further, the Kb on gastrin was 0.02 µM.

On to `O=C(NO)c1cc(NC(=O)[C@H](Cc2ccccc2)NC(=O)c2cc3cc[nH]c3cc2C(=O)NCC23CC4CC(CC(C4)C2)C3)cc(C(=O)NO)c1` [Example 34, 5-(1S-(3,5-dihydroxyaminocarbonylphenylaminocarbonyl)-2-phenylethylaminocarbonyl)-6-(1-adamantanemethylaminocarbonyl)-indole], for which the results for the Ki on CCKB receptor and on CCKA were 0.00794 µM and 0.794 µM, respectively. For the same compound, the Kb on gastrin is 0.002 µM.

For `Cn1ccc2cc(C(=O)NCC34CC5CC(CC(C5)C3)C4)c(C(=O)N[C@@H](Cc3ccccc3)C(=O)Nc3cc(C(=O)O)cc(C(=O)O)c3)cc21` [Example 37, 6-(1S-(3,5-dicarboxyphenylaminocarbonyl)-2-phenylethylaminocarbonyl)-5-(1-adamantanemethylaminocarbonyl)-N-methyl-indole], the values for the Ki at CCKB receptor and on CCKA were 0.00398 µM and 2.51 µM, respectively. In addition, the Kb at gastrin was 0.00398 µM.
